The target of the first assay is b-Raf (V600E) (Homo sapiens (Human), UniProt P15056, V600E). The note with it: read-out: b-Raf IC-50.
Chain of b-Raf (V600E) (P15056 whole entry V600E): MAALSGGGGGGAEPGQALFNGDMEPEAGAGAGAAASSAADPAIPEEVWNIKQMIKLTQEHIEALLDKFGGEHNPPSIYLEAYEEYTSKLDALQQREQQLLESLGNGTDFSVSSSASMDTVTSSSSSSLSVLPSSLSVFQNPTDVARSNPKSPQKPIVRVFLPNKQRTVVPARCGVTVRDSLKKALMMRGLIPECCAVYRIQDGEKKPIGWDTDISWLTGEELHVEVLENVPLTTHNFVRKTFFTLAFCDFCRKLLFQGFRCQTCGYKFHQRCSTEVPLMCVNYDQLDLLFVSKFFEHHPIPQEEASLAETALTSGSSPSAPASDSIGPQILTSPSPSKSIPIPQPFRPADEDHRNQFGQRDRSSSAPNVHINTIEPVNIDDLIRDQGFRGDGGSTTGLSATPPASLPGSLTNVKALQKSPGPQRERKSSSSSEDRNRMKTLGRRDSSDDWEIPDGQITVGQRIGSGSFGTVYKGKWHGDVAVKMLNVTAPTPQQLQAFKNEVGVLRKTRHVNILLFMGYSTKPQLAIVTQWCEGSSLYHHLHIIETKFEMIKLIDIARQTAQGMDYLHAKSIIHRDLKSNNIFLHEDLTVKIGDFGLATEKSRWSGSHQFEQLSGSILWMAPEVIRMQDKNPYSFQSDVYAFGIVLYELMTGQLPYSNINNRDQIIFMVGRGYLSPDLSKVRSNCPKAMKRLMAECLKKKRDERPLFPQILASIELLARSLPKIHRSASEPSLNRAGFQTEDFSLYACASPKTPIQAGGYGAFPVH
As for `Cc1ccc(NC(=O)c2cccc(C(F)(F)F)c2)cc1-c1cc(N2CCOCC2)nc(N2CCOCC2)n1` [Example 10, N-(3-(2,6-dimorpholinopyrimidin-4-yl)-4-methylphenyl)-3-(trifluoromethyl)benzamide], the IC50 is 0.3 nM.

On to `CCOc1nnc(-c2cc(NC(=O)c3ccc(CNC)c(C(F)(F)F)c3)ccc2C)cc1N1CCOCC1` [Example 574, N-(3-(6-ethoxy-5-morpholinopyridazin-3-yl)-4-methylphenyl)-4-((methylamino)methyl)-3-(trifluoromethyl)benzamide], for which the IC50 worked out at 2.2 nM.

Still in this assay, the particulars now being: read-out: b-Raf IC-50; AlphaScreen, 60 min pre-incubation, 3 hours reaction.
In the case of `Cc1ccc(NC(=O)c2ccnc(C(C)C)c2)cc1-c1cc(N2CCOCC2)nc(OC2CNC2)n1` [Example 778, N-(3-(2-(azetidin-3-yloxy)-6-morpholinopyrimidin-4-yl)-4-methylphenyl)-2-isopropylisonicotinamide], the IC50 is 2.3 nM. With `COc1nnc(-c2cc(NC(=O)c3cccc(C(F)F)c3)cnc2C)cc1N1CCOCC1` [Example 604, 3-(difluoromethyl)-N-(5-(6-methoxy-5-morpholinopyridazin-3-yl)-6-methylpyridin-3-yl)benzamide], the IC50 came out at 2.3 nM. As for `Cc1ncc(NC(=O)c2cccc(C(F)(F)F)c2)cc1-c1cc(N2CCOCC2)nc(NCCO)n1` [Example 735, N-(5-(2-((2-hydroxyethyl)amino)-6-morpholinopyrimidin-4-yl)-6-methylpyridin-3-yl)-3-(trifluoromethyl)benzamide], the IC50 was determined as 4.3 nM. Still for that read-out and setting: as for `Cc1ccc(NC(=O)c2cnnc(C(F)(F)F)c2)cc1-c1cc(N2CCOCC2)c(=O)n(C)n1` [Example 647, N-(4-methyl-3-(1-methyl-5-morpholino-6-oxo-1,6-dihydropyridazin-3-yl)phenyl)-6-(trifluoromethyl)pyridazine-4-carboxamide], the figure is 5.3 nM; as for `Cc1ccc(NC(=O)c2cccc(C(F)(F)F)c2)cc1-c1nc(N2CCOCC2)c2occc2n1` [Example 838, N-(4-methyl-3-(4-morpholinofuro[3,2-d]pyrimidin-2-yl)phenyl)-3-(trifluoromethyl)benzamide], 0.9 nM; as for `Cc1ncc(NC(=O)c2cccc(C(F)F)c2)cc1-c1cc(N2CCOCC2)n2nccc2n1` [Example 804, 3-(difluoromethyl)-N-(6-methyl-5-(7-morpholinopyrazolo[1,5-a]pyrimidin-5-yl)pyridin-3-yl)benzamide], 0.8 nM. The same measure, in the same setting: as for `Cc1ccc(NC(=O)c2ccnc(C(C)(F)F)c2)cc1-c1cc(N2CCOCC2)c2nccn2n1` [Example 843, 2-(1,1-difluoroethyl)-N-(4-methyl-3-(8-morpholinoimidazo[1,2-b]pyridazin-6-yl)phenyl)isonicotinamide], the figure is 0.8 nM. Still for that read-out and setting: then `COCCOc1nnc(-c2cc(NC(=O)c3ccnc(C(C)(C)C#N)c3)ccc2C)cc1N1CCOCC1` [Example 601, 2-(2-cyanopropan-2-yl)-N-(3-(6-(2-methoxyethoxy)-5-morpholinopyridazin-3-yl)-4-methylphenyl)isonicotinamide], with 1.1 nM; and `Cc1ccc(NC(=O)c2cccc(C(C)(C)S(C)(=O)=O)c2)cc1-c1cc(N2CCOCC2)c(=O)n(C)n1` [Example 637, N-(4-methyl-3-(1-methyl-5-morpholino-6-oxo-1,6-dihydropyridazin-3-yl)phenyl)-3-(2-(methylsulfonyl)propan-2-yl)benzamide], with 24.9 nM.

Turning to `CCC(F)(F)c1cc(C(=O)Nc2ccc(C)c(-c3cc(N4CCOCC4)n(C)c(=O)c3)c2)ccn1` [Example 475, 2-(1,1-difluoropropyl)-N-(4-methyl-3-(1-methyl-6-morpholino-2-oxo-1,2-dihydropyridin-4-yl)phenyl)isonicotinamide], the IC50 was found to be 0.8 nM. Same read-out and setting: then `COc1nnc(-c2cc(NC(=O)c3ccnc(C(C)(F)F)c3)cnc2C)cc1N1CCOCC1` [Example 603, 2-(1,1-difluoroethyl)-N-(5-(6-methoxy-5-morpholinopyridazin-3-yl)-6-methylpyridin-3-yl)isonicotinamide], with 2.7 nM.

Still in this assay, the particulars now being: read-out: b-Raf IC-50; AlphaScreen, 60 min pre-incubation, reaction 3 hours at room temperature.
With `Cc1ncc(NC(=O)c2cc(CN(C)C)cc(C(F)(F)F)c2)cc1-c1cc(N2CCOCC2)nc(N2CC(O)C2)c1` [Example 1085, 3-((dimethylamino)methyl)-N-(2′-(3-hydroxyazetidin-1-yl)-2-methyl-6′-morpholino-[3,4′-bipyridin]-5-yl)-5-(trifluoromethyl)benzamide], the IC50 turned out to be 108 nM. Still for that read-out and setting: then `CCC(F)(F)c1cc(C(=O)Nc2cnc(C)c(-c3cc(NCCO)nc(N4CCOCC4)c3)c2)ccn1` [Example 1058, 2-(1,1-difluoropropyl)-N-(2′-((2-hydroxyethyl)amino)-2-methyl-6′-morpholino-[3,4′-bipyridin]-5-yl)isonicotinamide], with 10.8 nM; and `Cc1ncc(NC(=O)c2ccnc(C(C)(C)C#N)c2)cc1-c1cc(N2CCOCC2)c2nccn2c1` [Example 881, 2-(2-cyanopropan-2-yl)-N-(6-methyl-5-(8-morpholinoimidazo[1,2-a]pyridin-6-yl)pyridin-3-yl)isonicotinamide], with 32.6 nM; and `Cc1cc(=O)c(C(=O)Nc2cccc(C(F)(F)F)c2)cn1-c1ccnc(N2CCOCC2)c1` [Example 1175, 6-methyl-2′-morpholino-4-oxo-N-(3-(trifluoromethyl)phenyl)-4H-[1,4′-bipyridine]-3-carboxamide], with 80 nM. For the compound `Cc1ncc(NC(=O)c2cccc(C(F)(F)F)c2)cc1-c1cnc(N(C)CCO)c(N2CCOCC2)c1` [Example 986, N-(6′-((2-hydroxyethyl)(methyl)amino)-2-methyl-5′-morpholino-[3,3′-bipyridin]-5-yl)-3-(trifluoromethyl)benzamide], the IC50 turned out to be 0.83 nM.

As for `Cc1ccc(NC(=O)c2ccnc(C(C)(C)C#N)c2)cc1-c1nc(N2CCOCC2)c2[nH]ccc2n1` [Example 863, 2-(2-cyanopropan-2-yl)-N-(4-methyl-3-(4-morpholino-5H-pyrrolo[3,2-d]pyrimidin-2-yl)phenyl)isonicotinamide], the IC50 came to 2.8 nM.

Take `Cc1ccc(NC(=O)c2cccc(C(F)(F)F)c2)cc1-c1cc(N2CCOCC2)nc(N2C[C@H](O)CC2=O)c1` [Example 1064, (R)—N-(3-(2-(4-hydroxy-2-oxopyrrolidin-1-yl)-6-morpholinopyridin-4-yl)-4-methylphenyl)-3-(trifluoromethyl)benzamide]: the IC50 was determined as 0.65 nM.

For `Cc1ccc(NC(=O)c2ccnc(C(C)(C)O)c2)cc1-c1cc(N2CCOCC2)nc(N2CC(O)C2)c1` [Example 1098, N-(3-(2-(3-hydroxyazetidin-1-yl)-6-morpholinopyridin-4-yl)-4-methylphenyl)-2-(2-hydroxypropan-2-yl)isonicotinamide], the IC50 was 5.75 nM. The same measure, in the same setting: as for `Cc1ccc(NC(=O)c2ccnc(C(F)(F)F)c2)cc1-c1c(F)c(NCCO)nc(N2CCOCC2)c1F` [Example 1014, N-(3-(3,5-difluoro-2-((2-hydroxyethyl)amino)-6-morpholinopyridin-4-yl)-4-methylphenyl)-2-(trifluoromethyl)isonicotinamide], the figure is 12.8 nM. Still for that read-out and setting: as for `CCC(F)(F)c1cc(C(=O)Nc2ccc(C)c(-c3cc(N4CCOCC4)c(S(C)(=O)=O)nn3)c2)ccn1` [Example 926, 2-(1,1-difluoropropyl)-N-(4-methyl-3-(6-(methylsulfonyl)-5-morpholinopyridazin-3-yl)phenyl)isonicotinamide], the figure is 2.13 nM; as for `Cc1ccc(NC(=O)c2ccnc(C3(C#N)CC3)c2)cc1-c1cc(NCCO)nc(N2CCOCC2)c1F` [Example 1011, 2-(1-cyanocyclopropyl)-N-(3-(3-fluoro-6-((2-hydroxyethyl)amino)-2-morpholinopyridin-4-yl)-4-methylphenyl)isonicotinamide], 24.5 nM. The same measure, in the same setting: as for `Cc1ccc(NC(=O)c2ccnc(C(C)(C)C#N)c2)cc1-c1cc(N2CCOCC2)nc(N2CC(O)C2)c1` [Example 1059, 2-(2-cyanopropan-2-yl)-N-(3-(2-(3-hydroxyazetidin-1-yl)-6-morpholinopyridin-4-yl)-4-methylphenyl)isonicotinamide], the figure is 3.84 nM.

The same assay, now with this note: read-out: b-Raf IC-50; Table 2; AlphaScreen, 3 hours reaction.
In the case of `Cc1ccc(NC(=O)c2cccc(C(F)(F)F)c2)cc1-c1cc(N2CCOCC2)c(=O)n(C)n1` [Example 164, N-(4-methyl-3-(1-methyl-5-morpholino-6-oxo-1,6-dihydropyridazin-3-yl)phenyl)-3-(trifluoromethyl)benzamide], the IC50 was found to be 1.7 nM. In the case of `Cc1ccc(NC(=O)c2ccnc(C(C)(C)O)c2)cc1-c1cnc(OC2CCOCC2)c(N2CCOCC2)c1` [Example 277, 2-(2-hydroxypropan-2-yl)-N-(4-methyl-3-(5-morpholino-6-((tetrahydro-2H-pyran-4-yl)oxy)pyridin-3-yl)phenyl)isonicotinamide], the IC50 came to 1 nM.

`Cn1cc(-c2cc(C(=O)Nc3cccc(C(F)F)c3)ccc2Cl)cc(N2CCOCC2)c1=O` [Example 426, 4-chloro-N-(3-(difluoromethyl)phenyl)-3-(1-methyl-5-morpholino-6-oxo-1,6-dihydropyridin-3-yl)benzamide]: the IC50 was determined as 2.4 nM. For the compound `COc1ncc(-c2cc(NC(=O)c3ccnc(C4(C#N)CC4)c3)cnc2Cl)cc1N1CCOCC1` [Example 260, N-(2-chloro-6′-methoxy-5′-morpholino-[3,3′-bipyridin]-5-yl)-2-(1-cyanocyclopropyl)isonicotinamide], the IC50 was determined as 2.9 nM. On the same count and under the same terms, then `Cc1ncc(NC(=O)c2cccc(C(F)(F)F)c2)cc1-c1cnc(OC(F)F)c(N2CCOCC2)c1` [Example 224, N-(6′-(difluoromethoxy)-2-methyl-5′-morpholino-[3,3′-bipyridin]-5-yl)-3-(trifluoromethyl)benzamide], with 2.7 nM; and `Cc1ncc(NC(=O)c2ccnc(C(C)(C)C#N)c2)cc1-c1cnc(Cl)c(N2CCOCC2)c1` [Example 289, N-(6′-chloro-2-methyl-5′-morpholino-[3,3-bipyridin]-5-yl)-2-(2-cyanopropan-2-yl)isonicotinamide], with 15.6 nM.

The values are drawn from patent US9694016B2 (Novartis AG, priority 2013, dated 2017).
